Patent US12679839B2, “Cyclin-dependent kinase 7 (CDK7) non-covalent inhibitors” (JANSSEN PHARMACEUTICA NV, priority 2020, dated 2026)

Tested on: RNA polymerase II Serine 5 phosphorylation (Rpb1 CTD), downstream substrate of CDK7
Assay: Imaging-based cellular RNA PolII Ser5 phosphorylation assay in A549 cells
Type: cell-based, human
Settings: Homo sapiens, A549, 3 h, challenged with compound for 3 hours, read-out: pRNA polII Ser5 (A549) pIC50 (converted)
Method in brief: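 A549 cells seeded 20 h in DMEM with 1% FBS, then exposed to compound for 3 h at 37 °C; fixed, methanol-permeabilized and immunostained for phospho-Rpb1 CTD Ser5, read by automated imaging. Signal normalized to DMSO (high) and 10 μM LDC4297 (low) controls; IC50 from four-parameter fit of % control vs concentration.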

| IC50 [nM] | SMILES |
| --- | --- |
| 110 | CC1CN(C(=O)[C@H]2CCN(C)C[C@@H]2c2ccccc2)Cc2nc(Nc3cnn(C)c3)ncc21 (mixture of isomers) [Compound 194] |
| 832 | C[C@@H]1Cc2cnc(N[C@@H]3CCC(=O)N(C)C3)nc2CN1C(=O)[C@H]1CCN(C)C[C@@H]1c1ccccc1 (relative stereo) [Compound 6] |
| 398 | C[C@@H]1Cc2cnc(N[C@H]3CCOC(C)(C)C3)nc2CN1C(=O)[C@H]1CCN(C)C[C@@H]1c1ccccc1 (relative stereo) [Compound 39] |
| 1700 | Cc1cc([C@@H]2CN(C)CC[C@H]2C(=O)N2Cc3nc(NC4CCOCC4)ncc3C[C@H]2C)ccn1 (relative stereo) [Compound 102] |
| 407 | CO[C@H]1CC[C@H](Nc2ncc3c(n2)CN(C(=O)[C@@H]2CCN(C)C[C@H]2c2ccnc(C)c2)[C@H](C)C3)CC1 (relative stereo) [Compound 105] |
| ~41.7 | C[C@@H]1Cc2cnc(NCc3ccn(C)n3)nc2CN1C(=O)[C@H]1CCN(C)C[C@@H]1c1cccc(C(F)(F)F)c1 (relative stereo) [Compound 129] |
| ~81.3 | C[C@@H]1Cc2cnc(NC3CCOCC3)nc2CN1C(=O)[C@H]1CCN(C)C[C@@H]1c1ccc(Cl)cc1 (relative stereo) [Compound 132] |
| 97.7 | C[C@@H]1Cc2cnc(NC3CCOCC3)nc2CN1C(=O)[C@H]1CCN(C)C[C@@H]1c1cccc(F)c1 (relative stereo) [Compound 133] |
| ~67.6 | Cc1cccc([C@H]2CN(C)CC[C@@H]2C(=O)N2Cc3nc(NC4CCOCC4)ncc3C[C@H]2C)c1 (relative stereo) [Compound 134] |
| ~27.5 | Cc1cccc([C@@H]2CN(C)CC[C@H]2C(=O)N2Cc3nc(NCc4ccn(C)n4)ncc3C[C@H]2C)c1 (relative stereo) [Compound 136] |
| 1260 | C[C@@H]1Cc2cnc(NCc3ccn(C)n3)nc2CN1C(=O)[C@H]1CCN(C)C[C@@H]1c1ccccc1C(F)F (relative stereo) [Compound 139] |
| > 10000 | C[C@@H]1Cc2cnc(NCc3ccccc3)nc2CN1C(=O)[C@@H]1CCN(C)C[C@H]1C(F)(F)F (relative stereo) [Compound 141] |
| 2570 | C[C@@H]1Cc2cnc(NCc3ccn(C)n3)nc2CN1C(=O)[C@H]1CCN(C)C[C@@H]1C(F)(F)F (relative stereo) [Compound 143] |
| 759 | C[C@@H]1Cc2cnc(N[C@H]3CCCNC3)nc2CN1C(=O)[C@H]1CCN(C)C[C@@H]1C(F)(F)F (relative stereo) [Compound 144] |
| 2950 | C[C@@H]1CN(C)CC[C@H]1C(=O)N1Cc2nc(NC3CCOCC3)ncc2C[C@H]1C (relative stereo) [Compound 145] |
| 692 | C[C@@H]1Cc2cnc(NC3CCOCC3)nc2CN1C(=O)[C@H]1CCN(C)C[C@@H]1C (relative stereo) [Compound 146] |
| 2510 | C[C@H]1CN(C(=O)[C@H]2CCN(C)C[C@@H]2c2ccccc2)[C@@H](C)c2nc(NC3CCOCC3)ncc21 (relative stereo) [Compound 181] |
| 105 | C[C@@H]1CN(C(=O)[C@H]2CCN(C)C[C@@H]2c2ccccc2)Cc2nc(NC3CCOCC3)ncc21 (relative stereo) [Compound 188] |
| 1020 | CN1CC[C@H](C(=O)N2Cc3nc(NC4CCOCC4)ncc3CC2(C)C)[C@@H](c2ccccc2)C1 (relative stereo) [Compound 189] |
| ~26.9 | [2H]C([2H])([2H])N1CC[C@@H](C(=O)N2Cc3nc(NCc4ccn(C)n4)ncc3C[C@H]2C)[C@H](c2cccc(C)c2)C1 (single isomer, unassigned) [Compound 148] |
| 129 | [2H]C([2H])([2H])N1CC[C@H](C(=O)N2Cc3nc(NCc4ccccc4)ncc3C[C@H]2C)[C@@H](c2ccccc2)C1 (single isomer, unassigned) [Compound 154] |
| 72.4 | C[C@@H]1Cc2cnc(NC3CCOCC3)nc2[C@H](C)N1C(=O)[C@H]1CCN(C)C[C@@H]1c1ccccc1 (single isomer, unassigned) [Compound 195b] |
